The text below walks through data of ChEMBL document CHEMBL5303573, “Mapping human microbiome drug metabolism by gut bacteria and their genes” (Nature, 2019).

One series can be described thus: The drug is tested on Blautia luti strain: DSM14534 for biotransformation. The drug concentrations were measured before and after a 12-h incubation by liquid-chromatography-coupled mass spectrometry (LC–MS). The format is ADME. The arrangement: dose 2 uM, timepoint 0 vs 12 hours. As to conditions: 2 µM.
As for `CCCc1nn(C)c2c(=O)[nH]c(-c3cc(S(=O)(=O)N4CCN(C)CC4)ccc3OCC)nc12.O=C(O)CC(O)(CC(=O)O)C(=O)O` [SILDENAFIL CITRATE], the “Bacterial Biotransformation” value is listed as “Compound NOT metabolized”.

For the compound `CN(C/C=C/C#CC(C)(C)C)Cc1cccc2ccccc12` [TERBINAFINE], the “Bacterial Biotransformation” value is “Compound NOT metabolized”.

A further series is described as follows: The drug is tested on Bacteroides ovatus strain: ATCC8483 for biotransformation. The drug concentrations were measured before and after a 12-h incubation by liquid-chromatography-coupled mass spectrometry (LC–MS). To be noted: 2 µM.
Regarding `CCCc1nn(C)c2c(=O)[nH]c(-c3cc(S(=O)(=O)N4CCN(C)CC4)ccc3OCC)nc12.O=C(O)CC(O)(CC(=O)O)C(=O)O` [SILDENAFIL CITRATE], the “Bacterial Biotransformation” value is listed as “Compound metabolized”.

Turning to `CN(C/C=C/C#CC(C)(C)C)Cc1cccc2ccccc12` [TERBINAFINE], the “Bacterial Biotransformation” value is given as “Compound NOT metabolized”.

The next series in a line: The drug is tested on Clostridium scindens strain: ATCC35704 for biotransformation. The drug concentrations were measured before and after a 12-h incubation by liquid-chromatography-coupled mass spectrometry (LC–MS). As to conditions: 2 µM.
For `CCCc1nn(C)c2c(=O)[nH]c(-c3cc(S(=O)(=O)N4CCN(C)CC4)ccc3OCC)nc12.O=C(O)CC(O)(CC(=O)O)C(=O)O` [SILDENAFIL CITRATE], the “Bacterial Biotransformation” value was “Compound NOT metabolized”.

Take `CN(C/C=C/C#CC(C)(C)C)Cc1cccc2ccccc12` [TERBINAFINE]: the “Bacterial Biotransformation” value is “Compound NOT metabolized”.

The next series in a line: The drug is tested on Eubacterium hallii strain: DSM3353 for biotransformation. The drug concentrations were measured before and after a 12-h incubation by liquid-chromatography-coupled mass spectrometry (LC–MS). To be noted: anaerobutyricum hallii, 2 µM.
Turning to `CCCc1nn(C)c2c(=O)[nH]c(-c3cc(S(=O)(=O)N4CCN(C)CC4)ccc3OCC)nc12.O=C(O)CC(O)(CC(=O)O)C(=O)O` [SILDENAFIL CITRATE], the “Bacterial Biotransformation” value was “Compound NOT metabolized”.

Take `CN(C/C=C/C#CC(C)(C)C)Cc1cccc2ccccc12` [TERBINAFINE]: the “Bacterial Biotransformation” value is recorded as “Compound NOT metabolized”.

Another series is described as follows: The drug is tested on Subdoligranulum variabile strain: DSM15176 for biotransformation. The drug concentrations were measured before and after a 12-h incubation by liquid-chromatography-coupled mass spectrometry (LC–MS). As to conditions: 2 µM.
In the case of `CCCc1nn(C)c2c(=O)[nH]c(-c3cc(S(=O)(=O)N4CCN(C)CC4)ccc3OCC)nc12.O=C(O)CC(O)(CC(=O)O)C(=O)O` [SILDENAFIL CITRATE], the “Bacterial Biotransformation” value is “Compound NOT metabolized”.

With `CN(C/C=C/C#CC(C)(C)C)Cc1cccc2ccccc12` [TERBINAFINE], the “Bacterial Biotransformation” value is recorded as “Compound NOT metabolized”.

A further series is described as follows: The drug is tested on Enterobacter cancerogenus strain: ATCC35316 for biotransformation. The drug concentrations were measured before and after a 12-h incubation by liquid-chromatography-coupled mass spectrometry (LC–MS). As to conditions: 2 µM.
`CCCc1nn(C)c2c(=O)[nH]c(-c3cc(S(=O)(=O)N4CCN(C)CC4)ccc3OCC)nc12.O=C(O)CC(O)(CC(=O)O)C(=O)O` [SILDENAFIL CITRATE]: the “Bacterial Biotransformation” value is given as “Compound NOT metabolized”.

Turning to `CN(C/C=C/C#CC(C)(C)C)Cc1cccc2ccccc12` [TERBINAFINE], the “Bacterial Biotransformation” value is listed as “Compound NOT metabolized”.

The conditions of another series: bacteroides fragilis, 12 h, 2 µM.
Description: The drug is tested on Bacteroides fragilis strain: DS-208 for biotransformation. The drug concentrations were measured before and after a 12-h incubation by liquid-chromatography-coupled mass spectrometry (LC–MS)
With `CCCc1nn(C)c2c(=O)[nH]c(-c3cc(S(=O)(=O)N4CCN(C)CC4)ccc3OCC)nc12.O=C(O)CC(O)(CC(=O)O)C(=O)O` [SILDENAFIL CITRATE], the “Bacterial Biotransformation” value is “Compound NOT metabolized”.

For `CN(C/C=C/C#CC(C)(C)C)Cc1cccc2ccccc12` [TERBINAFINE], the “Bacterial Biotransformation” value was “Compound NOT metabolized”.

Another series in a line: The drug is tested on Bacteroides cellulosilyticus strain: DSM14838 for biotransformation. The drug concentrations were measured before and after a 12-h incubation by liquid-chromatography-coupled mass spectrometry (LC–MS). To be noted: 2 µM.
As to `CCCc1nn(C)c2c(=O)[nH]c(-c3cc(S(=O)(=O)N4CCN(C)CC4)ccc3OCC)nc12.O=C(O)CC(O)(CC(=O)O)C(=O)O` [SILDENAFIL CITRATE], the “Bacterial Biotransformation” value is “Compound NOT metabolized”.

For `CN(C/C=C/C#CC(C)(C)C)Cc1cccc2ccccc12` [TERBINAFINE], the “Bacterial Biotransformation” value is recorded as “Compound NOT metabolized”.

The nature of a further series: The drug is tested on Bifidobacterium breve strain: DSM20213 for biotransformation. The drug concentrations were measured before and after a 12-h incubation by liquid-chromatography-coupled mass spectrometry (LC–MS). As to conditions: 2 µM.
As for `CCCc1nn(C)c2c(=O)[nH]c(-c3cc(S(=O)(=O)N4CCN(C)CC4)ccc3OCC)nc12.O=C(O)CC(O)(CC(=O)O)C(=O)O` [SILDENAFIL CITRATE], the “Bacterial Biotransformation” value is “Compound NOT metabolized”.

As to `CN(C/C=C/C#CC(C)(C)C)Cc1cccc2ccccc12` [TERBINAFINE], the “Bacterial Biotransformation” value is listed as “Compound NOT metabolized”.

Another series is described as follows: The drug is tested on Clostridium symbiosum strain: ATCC14940 for biotransformation. The drug concentrations were measured before and after a 12-h incubation by liquid-chromatography-coupled mass spectrometry (LC–MS). To be noted: 2 µM.
As for `CCCc1nn(C)c2c(=O)[nH]c(-c3cc(S(=O)(=O)N4CCN(C)CC4)ccc3OCC)nc12.O=C(O)CC(O)(CC(=O)O)C(=O)O` [SILDENAFIL CITRATE], the “Bacterial Biotransformation” value is recorded as “Compound NOT metabolized”.

Regarding `CN(C/C=C/C#CC(C)(C)C)Cc1cccc2ccccc12` [TERBINAFINE], the “Bacterial Biotransformation” value is given as “Compound NOT metabolized”.

The conditions of a further series: bacteroides thetaiotaomicron, 12 h, 2 µM.
Description: The drug is tested on Bacteroides thetaiotaomicron strain: VPI-5482 for biotransformation. The drug concentrations were measured before and after a 12-h incubation by liquid-chromatography-coupled mass spectrometry (LC–MS)
As to `CCCc1nn(C)c2c(=O)[nH]c(-c3cc(S(=O)(=O)N4CCN(C)CC4)ccc3OCC)nc12.O=C(O)CC(O)(CC(=O)O)C(=O)O` [SILDENAFIL CITRATE], the “Bacterial Biotransformation” value is recorded as “Compound NOT metabolized”.

With `CN(C/C=C/C#CC(C)(C)C)Cc1cccc2ccccc12` [TERBINAFINE], the “Bacterial Biotransformation” value is “Compound NOT metabolized”.

The next series in a line: The drug is tested on Bacteroides finegoldii strain: DSM17565 for biotransformation. The drug concentrations were measured before and after a 12-h incubation by liquid-chromatography-coupled mass spectrometry (LC–MS). To be noted: 2 µM.
On to `CCCc1nn(C)c2c(=O)[nH]c(-c3cc(S(=O)(=O)N4CCN(C)CC4)ccc3OCC)nc12.O=C(O)CC(O)(CC(=O)O)C(=O)O` [SILDENAFIL CITRATE], for which the “Bacterial Biotransformation” value was “Compound NOT metabolized”.

As to `CN(C/C=C/C#CC(C)(C)C)Cc1cccc2ccccc12` [TERBINAFINE], the “Bacterial Biotransformation” value is recorded as “Compound NOT metabolized”.

The conditions of another series: bacteroides thetaiotaomicron, 12 h, 2 µM. The source holds these as a separate data set.
Description: The drug is tested on Bacteroides thetaiotaomicron strain: 3731 for biotransformation. The drug concentrations were measured before and after a 12-h incubation by liquid-chromatography-coupled mass spectrometry (LC–MS)
In the case of `CCCc1nn(C)c2c(=O)[nH]c(-c3cc(S(=O)(=O)N4CCN(C)CC4)ccc3OCC)nc12.O=C(O)CC(O)(CC(=O)O)C(=O)O` [SILDENAFIL CITRATE], the “Bacterial Biotransformation” value is “Compound NOT metabolized”.

For `CN(C/C=C/C#CC(C)(C)C)Cc1cccc2ccccc12` [TERBINAFINE], the “Bacterial Biotransformation” value is given as “Compound NOT metabolized”.

The next series is described as follows: The drug is tested on Clostridium sp. strain: fecal isolate for biotransformation. The drug concentrations were measured before and after a 12-h incubation by liquid-chromatography-coupled mass spectrometry (LC–MS). As to conditions: 2 µM.
For the compound `CCCc1nn(C)c2c(=O)[nH]c(-c3cc(S(=O)(=O)N4CCN(C)CC4)ccc3OCC)nc12.O=C(O)CC(O)(CC(=O)O)C(=O)O` [SILDENAFIL CITRATE], the “Bacterial Biotransformation” value is on record as “Compound metabolized”.

For `CN(C/C=C/C#CC(C)(C)C)Cc1cccc2ccccc12` [TERBINAFINE], the “Bacterial Biotransformation” value was “Compound NOT metabolized”.

For another series the following is noted: parabacteroides distasonis, 12 h, 2 µM.
Description: The drug is tested on Parabacteroides distasonis strain: ATCC8503 for biotransformation. The drug concentrations were measured before and after a 12-h incubation by liquid-chromatography-coupled mass spectrometry (LC–MS)
Take `CCCc1nn(C)c2c(=O)[nH]c(-c3cc(S(=O)(=O)N4CCN(C)CC4)ccc3OCC)nc12.O=C(O)CC(O)(CC(=O)O)C(=O)O` [SILDENAFIL CITRATE]: the “Bacterial Biotransformation” value was “Compound NOT metabolized”.

On to `CN(C/C=C/C#CC(C)(C)C)Cc1cccc2ccccc12` [TERBINAFINE], for which the “Bacterial Biotransformation” value is given as “Compound NOT metabolized”.

The nature of the next series: The drug is tested on Bacteroides caccae strain: ATCC43185 for biotransformation. The drug concentrations were measured before and after a 12-h incubation by liquid-chromatography-coupled mass spectrometry (LC–MS). To be noted: 2 µM.
In the case of `CCCc1nn(C)c2c(=O)[nH]c(-c3cc(S(=O)(=O)N4CCN(C)CC4)ccc3OCC)nc12.O=C(O)CC(O)(CC(=O)O)C(=O)O` [SILDENAFIL CITRATE], the “Bacterial Biotransformation” value is listed as “Compound NOT metabolized”.

`CN(C/C=C/C#CC(C)(C)C)Cc1cccc2ccccc12` [TERBINAFINE]: the “Bacterial Biotransformation” value is “Compound NOT metabolized”.

For another series the following is noted: bacteroides fragilis, 12 h, 2 µM. The source holds these as a separate data set.
Description: The drug is tested on Bacteroides fragilis strain: NCTC 9343 for biotransformation. The drug concentrations were measured before and after a 12-h incubation by liquid-chromatography-coupled mass spectrometry (LC–MS)
Consider `CCCc1nn(C)c2c(=O)[nH]c(-c3cc(S(=O)(=O)N4CCN(C)CC4)ccc3OCC)nc12.O=C(O)CC(O)(CC(=O)O)C(=O)O` [SILDENAFIL CITRATE], for which the “Bacterial Biotransformation” value is reported as “Compound metabolized”.

For `CN(C/C=C/C#CC(C)(C)C)Cc1cccc2ccccc12` [TERBINAFINE], the “Bacterial Biotransformation” value is on record as “Compound NOT metabolized”.

The next series is described as follows: The drug is tested on Bacteroides fragilis strain: ATCC43859 for biotransformation. The drug concentrations were measured before and after a 12-h incubation by liquid-chromatography-coupled mass spectrometry (LC–MS). To be noted: 2 µM.
On to `CCCc1nn(C)c2c(=O)[nH]c(-c3cc(S(=O)(=O)N4CCN(C)CC4)ccc3OCC)nc12.O=C(O)CC(O)(CC(=O)O)C(=O)O` [SILDENAFIL CITRATE], for which the “Bacterial Biotransformation” value was “Compound NOT metabolized”.

As for `CN(C/C=C/C#CC(C)(C)C)Cc1cccc2ccccc12` [TERBINAFINE], the “Bacterial Biotransformation” value was “Compound NOT metabolized”.

A further series in a line: The drug is tested on Eubacterium rectale strain: ATCC33656 for biotransformation. The drug concentrations were measured before and after a 12-h incubation by liquid-chromatography-coupled mass spectrometry (LC–MS). To be noted: agathobacter rectalis, 2 µM.
Turning to `CCCc1nn(C)c2c(=O)[nH]c(-c3cc(S(=O)(=O)N4CCN(C)CC4)ccc3OCC)nc12.O=C(O)CC(O)(CC(=O)O)C(=O)O` [SILDENAFIL CITRATE], the “Bacterial Biotransformation” value was “Compound NOT metabolized”.

On to `CN(C/C=C/C#CC(C)(C)C)Cc1cccc2ccccc12` [TERBINAFINE], for which the “Bacterial Biotransformation” value is reported as “Compound NOT metabolized”.

The nature of a further series: The drug is tested on Escherichia coli strain: BW25113 for biotransformation. The drug concentrations were measured before and after a 12-h incubation by liquid-chromatography-coupled mass spectrometry (LC–MS). As to conditions: 2 µM.
`CCCc1nn(C)c2c(=O)[nH]c(-c3cc(S(=O)(=O)N4CCN(C)CC4)ccc3OCC)nc12.O=C(O)CC(O)(CC(=O)O)C(=O)O` [SILDENAFIL CITRATE]: the “Bacterial Biotransformation” value is recorded as “Compound NOT metabolized”.

As to `CN(C/C=C/C#CC(C)(C)C)Cc1cccc2ccccc12` [TERBINAFINE], the “Bacterial Biotransformation” value was “Compound NOT metabolized”.
